Assay results published in ChEMBL document CHEMBL5625167, “In vitro bioevaluation and docking study of dihydrosphingosine and ethambutol analogues against sensitive and multi-drug resistant Mycobacterium tuberculosis” (Eur J Med Chem, 2023).
Values after ≈ are worked out from the molar mass of the structure shown. Values joined by “and” are separate entries in the source; they are usually repeats but may differ in a detail not shown here. Identical values can stand only once.

Assays:
Assay type in all cases: functional
[1] = tested on: Mycobacterium tuberculosis; test: Antimycobacterial activity against isoniazid, rifampicin, ethambutol, streptomycin and levofloxacin resistant Mycobacterium tuberculosis clinical isolate 1576 incubated for 7 days by resazurin dye based colorimetric method analysis; settings: Mycobacterium tuberculosis, 1576, 168 h; time 7 day
[2] = tested on: Mycobacterium tuberculosis; test: Antimycobacterial activity against pre-extensively drug resistant Mycobacterium tuberculosis 1576 assessed as reduction in CFU count at 8 uM measured after 12 days relative to control; parameters: scale not given: the % may be the effect or the level left; settings: time 12 day
[3] = tested on: Mycobacterium tuberculosis; test: Additive antimycobacterial activity against pre-extensively drug resistant Mycobacterium tuberculosis 1576 assessed as fractional inhibitory concentration index incubated for 7 days by resazurin dye based two-dimensional micro dilution checkerboard assay in presence of ethambutol; settings: time 7 day
[4] = tested on: Mycobacterium tuberculosis; test: Additive antimycobacterial activity against pre-extensively drug resistant Mycobacterium tuberculosis 1576 assessed as fractional inhibitory concentration index incubated for 7 days by resazurin dye based two-dimensional micro dilution checkerboard assay in presence of levofloxacin; settings: time 7 day
[5] = tested on: Mycobacterium tuberculosis; test: (§1) Synergistic antimycobacterial activity against pre-extensively drug resistant Mycobacterium tuberculosis 1576 assessed as fractional inhibitory concentration index incubated for 7 days by resazurin dye based two-dimensional micro dilution checkerboard assay in presence of rifampicin; settings: time 7 day
[6] = tested on: Mycobacterium tuberculosis; test: as §1, with “reduction in” for “fractional inhibitory”, “required to inhibit bacterial growth” for “index”, “rifampicin relative to control” for “rifampicin”; parameters: scale not given: the % may be the effect or the level left; settings: time 7 day
[7] = tested on: Mycobacterium tuberculosis; test: Additive antimycobacterial activity against pre-extensively drug resistant Mycobacterium tuberculosis 1576 incubated for 7 days by resazurin dye based two-dimensional micro dilution checkerboard assay in presence of amikacin; settings: time 7 day
[8] = tested on: Mycobacterium tuberculosis; test: Additive antimycobacterial activity against pre-extensively drug resistant Mycobacterium tuberculosis 1576 assessed as fractional inhibitory concentration index incubated for 7 days by resazurin dye based two-dimensional micro dilution checkerboard assay in presence of isoniazid; settings: time 7 day
[9] = tested on: Mycobacterium tuberculosis; test: Antimycobacterial activity against pre-extensively drug resistant Mycobacterium tuberculosis 1576 assessed as reduction in CFU count at 8 uM in presence of rifampicin measured after 12 days relative to control; parameters: scale not given: the % may be the effect or the level left; settings: time 12 day
[10] = tested on: Mycobacterium tuberculosis; test: Additive antimycobacterial activity against pre-extensively drug resistant Mycobacterium tuberculosis 1576 assessed as fractional inhibitory concentration index incubated for 7 days by resazurin dye based two-dimensional micro dilution checkerboard assay in presence of amikacin; settings: time 7 day
[11] = tested on: Mycobacterium tuberculosis; test: Additive antimycobacterial activity against pre-extensively drug resistant Mycobacterium tuberculosis 1576 incubated for 7 days by resazurin dye based two-dimensional micro dilution checkerboard assay in presence of isoniazid; settings: time 7 day
[12] = tested on: Mycobacterium tuberculosis; test: Synergistic antimycobacterial activity against pre-extensively drug resistant Mycobacterium tuberculosis 1576 incubated for 7 days by resazurin dye based two-dimensional micro dilution checkerboard assay in presence of rifampicin; settings: time 7 day
[13] = tested on: Mycobacterium tuberculosis; test: Additive antimycobacterial activity against pre-extensively drug resistant Mycobacterium tuberculosis 1576 incubated for 7 days by resazurin dye based two-dimensional micro dilution checkerboard assay in presence of ethambutol; settings: time 7 day
[14] = tested on: Mycobacterium tuberculosis; test: Additive antimycobacterial activity against pre-extensively drug resistant Mycobacterium tuberculosis 1576 incubated for 7 days by resazurin dye based two-dimensional micro dilution checkerboard assay in presence of levofloxacin; settings: time 7 day
[15] = tested on: Mycobacterium tuberculosis; test: Additive antimycobacterial activity against pre-extensively drug resistant Mycobacterium tuberculosis 1576 assessed as fractional inhibitory concentration index incubated for 48 hrs by micro dilution checkerboard assay in presence of rifampicin
[16] = tested on: Mycobacterium tuberculosis; test: Antimycobacterial activity against pre-extensively drug resistant Mycobacterium tuberculosis 1576 incubated for 7 days by resazurin dye based two-dimensional micro dilution checkerboard assay in presence of rifampicin; settings: time 7 day
[17] = tested on: Mycobacterium tuberculosis; test: Antimycobacterial activity against pre-extensively drug resistant Mycobacterium tuberculosis 1576 assessed as fractional inhibitory concentration index incubated for 7 days by resazurin dye based two-dimensional micro dilution checkerboard assay in presence of rifampicin; settings: time 7 day
[18] = tested on: Mycobacterium tuberculosis; test: Antimycobacterial activity against pre-extensively drug resistant Mycobacterium tuberculosis 1576 incubated for 7 days by resazurin dye based two-dimensional micro dilution checkerboard assay in presence of 1-((3,4,5-trimethoxybenzyl)oxy)heptadecan-2-amine; settings: time 7 day
[19] = tested on: Mycobacterium tuberculosis; test: Antimycobacterial activity against pre-extensively drug resistant Mycobacterium tuberculosis 1576 incubated for 7 days by resazurin dye based two-dimensional micro dilution checkerboard assay in presence of 1-(benzyloxy)heptadecan-2-amine; settings: time 7 day
[20] = tested on: Mycobacterium tuberculosis; test: Antimycobacterial activity against pre-extensively drug resistant Mycobacterium tuberculosis 1576 incubated for 7 days by resazurin dye based two-dimensional micro dilution checkerboard assay in presence of 2-aminoheptadecan-1-ol; settings: time 7 day

CCCCCCCCCCCC(CO)NCC (configuration not stated)
MIC [1]: 64 µM (≈ 15.6 µg/mL)

CCCCc1ccc(CCCCCCCCCC(N)CO)cc1 (configuration not stated)
MIC [1]: 2 µM (≈ 0.639 µg/mL)

CCCCCCCCCCCCCCCCCC(N)CO (configuration not stated)
MIC [1]: 8 µM (≈ 2.4 µg/mL)

CCCCc1ccc(CCCCCC(N)CO)cc1 (configuration not stated)
MIC [1]: 64 µM (≈ 16.9 µg/mL)

CCCCc1ccc(CCCCCCCCCC(CO)NC(=O)OC(C)(C)C)cc1 (configuration not stated)
MIC [1]: 16 µM (≈ 6.71 µg/mL)

CCCCCCCCCCCC(N)CO (configuration not stated)
MIC [1]: 32 µM (≈ 6.89 µg/mL)

CCCCCCCCCCCCCCCCCCCC(CO)N(CC)CC (configuration not stated)
MIC [1]: > 64 µM

CCCCCCCCCCCCCCCC(CNCCCCCC)NC(=O)OC(C)(C)C (configuration not stated)
MIC [1]: 8 µM (≈ 3.64 µg/mL)

CCCCCCCCCCCCCCCC(N)CN (configuration not stated)
MIC [1]: 390 µM (≈ 105 µg/mL)

CCCCCCCCCCCCCCCC(N)COCc1cc(OC)c(OC)c(OC)c1 (configuration not stated)
Activity [2]: >99.9% | fractional inhibitory concentration index (FICI) [3]: 0.75 | fractional inhibitory concentration index (FICI) [4]: 1 | fractional inhibitory concentration index (FICI) [5]: 0.5 | Activity [6]: 75% | FIC [7]: 0.5 | fractional inhibitory concentration index (FICI) [8]: 1 | Activity [9]: >=99.9% | fractional inhibitory concentration index (FICI) [10]: 0.75 | FIC [11]: 0.5 | FIC [12]: 0.25 | FIC [13]: 0.5 | FIC [14]: 0.5 | MIC [1]: 8 µM (≈ 3.61 µg/mL)

CCCCc1ccc(CCCCCC(CO)NC(=O)OC(C)(C)C)cc1 (configuration not stated)
MIC [1]: 16 µM (≈ 5.82 µg/mL)

CCCCCCCCCCCCCCCCCC(N)COCc1ccccc1 (configuration not stated)
MIC [1]: 64 µM (≈ 24.9 µg/mL)

CCCCCCCCCCCCCCCC(N)CO (configuration not stated)
fractional inhibitory concentration index (FICI) [3]: 0.75 | fractional inhibitory concentration index (FICI) [4]: 1 | FIC [7]: 0.5 | fractional inhibitory concentration index (FICI) [8]: 0.63 | fractional inhibitory concentration index (FICI) [10]: 0.75 | FIC [11]: 0.5 | fractional inhibitory concentration index (FICI) [15]: 0.53 | FIC [13]: 0.5 | FIC [14]: 0.5 | MIC [1]: 3.03 µM (≈ 0.823 µg/mL) | FIC [16]: 0.5 | fractional inhibitory concentration index (FICI) [17]: 0.53

CCCCCCCCCCCCCCCCCCCC(CNCC)NC(=O)OC(C)(C)C (configuration not stated)
MIC [1]: 4 µM (≈ 1.82 µg/mL)

CCCCCCCCCCCCCCCC(CO)NCCCCCC (configuration not stated)
MIC [1]: 64 µM (≈ 22.8 µg/mL)

CCCCCCCCCCCC(CO)N(CC)CC (configuration not stated)
MIC [1]: 32 µM (≈ 8.69 µg/mL)

CCCCc1ccc(CCCCCCCC(N)CO)cc1 (configuration not stated)
MIC [1]: 2 µM (≈ 0.583 µg/mL)

CCCCCCCCCCCCCCCCCCCC(CN)NC(=O)OC(C)(C)C (configuration not stated)
MIC [1]: 64 µM (≈ 27.3 µg/mL)

CCCCCCCCCCCCCCCC(CNCC)NC(=O)OC(C)(C)C (configuration not stated)
MIC [1]: 16 µM (≈ 6.38 µg/mL)

CCCCCCCCCCCCCCCC(CO)N(CCCC)CCCC (configuration not stated)
MIC [1]: 8 µM (≈ 3.07 µg/mL)

CCCCCCCCCCCCCCCCCCCC(N)COCc1ccccc1 (configuration not stated)
MIC [1]: 32 µM (≈ 13.4 µg/mL)

CCCCCCCCCCCCCCCC(CO)N(CC)CC (configuration not stated)
MIC [1]: 32 µM (≈ 10.5 µg/mL)

CCCCCCCCCCCCCCCC(N)COCc1ccccc1 (configuration not stated)
fractional inhibitory concentration index (FICI) [3]: 1.5 | fractional inhibitory concentration index (FICI) [4]: 1 | FIC [7]: 0.5 | fractional inhibitory concentration index (FICI) [8]: 0.63 | fractional inhibitory concentration index (FICI) [10]: 0.63 | FIC [11]: 0.5 | fractional inhibitory concentration index (FICI) [15]: 0.56 | FIC [13]: 0.5 | FIC [14]: 0.5 | MIC [1]: 4.5 µM (≈ 1.63 µg/mL) | FIC [16]: 0.5 | fractional inhibitory concentration index (FICI) [17]: 0.56

CCCCCCCCCCCCCCCCCC(CN)NC(=O)OC(C)(C)C (configuration not stated)
MIC [1]: 16 µM (≈ 6.38 µg/mL)

CCCCCCCCCCCC(CO)NCCCC (configuration not stated)
MIC [1]: 32 µM (≈ 8.69 µg/mL)

CCCCCCCCCCCC(CNCC)NC(=O)OC(C)(C)C (configuration not stated)
MIC [1]: 64 µM (≈ 21.9 µg/mL)

CCCCCCCCCCCCCCCC(N)CNCC (configuration not stated)
MIC [1]: 16 µM (≈ 4.78 µg/mL)

CCCCCCCCCCCCCCCCCC(COCc1ccccc1)NCCCCCC (configuration not stated)
MIC [1]: 64 µM (≈ 30.3 µg/mL)

CCCCCCCCCCCCCCCCCC(CO)NCCCC (configuration not stated)
MIC [1]: 32 µM (≈ 11.4 µg/mL)

CCCCCCCCCCCCCCCC(CN)NC(=O)OC(C)(C)C (configuration not stated)
MIC [1]: 17.6 µM (≈ 6.52 µg/mL)

CCCCCCCCCCCCCCCC(CN=[N+]=[N-])NC(=O)OC(C)(C)C (configuration not stated)
MIC [1]: 16 µM (≈ 6.35 µg/mL)

CCCCc1ccc(CCCCCCCC(CO)NC(=O)OC(C)(C)C)cc1 (configuration not stated)
MIC [1]: 16 µM (≈ 6.27 µg/mL)

CCCCCCCCCCCCCCCC(CNCCCC)NC(=O)OC(C)(C)C (configuration not stated)
MIC [1]: 8 µM (≈ 3.41 µg/mL)

CCCCCCCCCCCCCCCCCC(CO)NCC (configuration not stated)
MIC [1]: 16 µM (≈ 5.24 µg/mL)

CCCCCCCCCCCCCCCC(CO)NCCCC (configuration not stated)
MIC [1]: 64 µM (≈ 21 µg/mL)

CCCCCCCCCCCCCCCC(COCc1ccccc1)NCC (configuration not stated)
MIC [1]: 16 µM (≈ 6.23 µg/mL)

CCCCCCCCCCCCCCCC(CO)NCC (configuration not stated)
MIC [1]: 32 µM (≈ 9.59 µg/mL)

CCCCCCCCCCCCCCCC(CNCC(=O)OCC)NC(=O)OC(C)(C)C (configuration not stated)
MIC [1]: 32 µM (≈ 14.6 µg/mL)

CCCCCCCCCCCCCCCC(CO)NCCCCCCCCCC (configuration not stated)
MIC [1]: 64 µM (≈ 26.4 µg/mL)

CCCCCCCCCCCCCCCCCC(CO)N(CC)CC (configuration not stated)
MIC [1]: > 64 µM

CCCCCCCCCCCCCCCC(COCc1ccccc1)NCCCCCC (configuration not stated)
MIC [1]: 64 µM (≈ 28.5 µg/mL)

CCCCCCCCCCCCCCCCCCCC(COCc1ccccc1)NCC (configuration not stated)
MIC [1]: 16 µM (≈ 7.13 µg/mL)

NCC[C@H](O)C(=O)N[C@@H]1C[C@H](N)[C@@H](O[C@H]2O[C@H](CN)[C@@H](O)[C@H](O)[C@H]2O)[C@H](O)[C@H]1O[C@H]1O[C@H](CO)[C@@H](O)[C@H](N)[C@H]1O [AMIKACIN]
FIC [18]: 0.25 | FIC [19]: 0.125 | FIC [20]: 0.25 | MIC [1]: 0.8 µM and 0.63 µg/mL

CC[C@@H](CO)NCCN[C@@H](CC)CO [ETHAMBUTOL]
FIC [18]: 0.25 | FIC [19]: 1 | FIC [20]: 0.25 | MIC [1]: 28.8 µM and 8 µg/mL

NNC(=O)c1ccncc1 [ISONIAZID]
FIC [18]: 0.5 | FIC [19]: 0.125 | FIC [20]: 0.125 | MIC [1]: 934 µM and 128 µg/mL

C[C@H]1COc2c(N3CCN(C)CC3)c(F)cc3c(=O)c(C(=O)O)cn1c23 [LEVOFLOXACIN ANHYDROUS]
FIC [18]: 0.5 | FIC [19]: 0.5 | FIC [20]: 0.5 | MIC [1]: 5.5 µM and 2 µg/mL

CO[C@H]1/C=C/O[C@@]2(C)Oc3c(C)c(O)c4c(O)c(c(/C=N/N5CCN(C)CC5)c(O)c4c3C2=O)NC(=O)/C(C)=C\C=C\[C@H](C)[C@H](O)[C@@H](C)[C@@H](O)[C@@H](C)[C@H](OC(C)=O)[C@@H]1C [RIFAMPIN]
FIC [18]: 0.25 | FIC [19]: 0.063 | FIC [20]: 0.031 | MIC [1]: 78 µM and 64 µg/mL
